Common to all, as to assay: growth of human tumour cells (NCI), 48 h
Assay [1] relates to A498 renal.
Assay [2] relates to HOP-92 NSCLC.
Assay [3] concerns M14 melanoma.
For assay [4], the system named is KM12 colon.
In assay [5] the test system is IGROV1 ovarian.
The test system of assay [6] is K-562 leukemia.
The test system of assay [7] is HL-60(TB) leukemia.
Assay [8] concerns RPMI-8226 leukemia.
For assay [9], the system named is NCI-H23 lung.
Assay [10] relates to U251 CNS.
Assay [11] has as its system SF-539 CNS.
For assay [12], the system named is NCI-H460 lung.
The subject of assay [13] is COLO 205 colon.
Assay [14] relates to MALME-3M melanoma.
The subject of assay [15] is SF-295 CNS.
In assay [16] the test system is HS 578T breast.
In assay [17] the test system is NCI/ADR-RES ovarian.

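Values below derive from 48-hour exposures of cells grown in 96-well plates, with endpoints linearly interpolated between the two concentrations bracketing the appropriate inhibition level. TGI denotes the concentration required for complete inhibition of growth.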

Turning to `COCN1COCN=C1NC#N`, the TGI in assay [1], in assay [2], in [3], in [4], in assay [5] and in assay [6] was greater than 100 µM throughout. The TGI in assay [7], in assay [8], in assay [9], in [10], in assay [11] and in assay [12] was greater than 100 µM throughout. The TGI in assay [13], in assay [14] and in assay [15] was greater than 100 µM in each case.
On to `O=C1CC(c2ccccc2)=Nc2ccccc2N1`, for which the TGI in assay [1], in assay [2], in assay [3], in [4], in [5] and in assay [6] was greater than 100 µM each time. Besides, the TGI in assay [7], in assay [9], in [10], in assay [11], in assay [12] and in assay [13] was greater than 100 µM each time. Besides, the TGI in [14] and in assay [15] was greater than 100 µM throughout.
For `O=[N+]([O-])C(/C=N/Nc1ccccc1)/C=N/Nc1ccccc1`, the TGI in [1], in [2], in [3], in assay [4], in assay [5] and in [6] was greater than 100 µM in each case. Also, the TGI in assay [7], in [9], in assay [10], in [11], in assay [12] and in [13] was greater than 100 µM each time. Further, the TGI in assay [14] and in assay [15] was greater than 100 µM throughout.
Consider `Cc1n[nH]c(=O)n1/N=C\c1ccccc1`, for which the TGI in assay [1], in assay [16], in [4], in assay [5], in assay [6] and in assay [7] was greater than 100 µM each time. In addition, the TGI in assay [8], in [9], in [17], in assay [10], in assay [11] and in assay [12] was greater than 100 µM throughout. The TGI in assay [13], in assay [14] and in assay [15] was greater than 100 µM throughout.
For the compound `O=C(c1ccc(Cl)cc1)N(C(=S)N1CCN(c2ccccn2)CC1)C1CCCCC1`, the TGI in [2], in assay [3], in [4], in assay [5], in assay [6] and in assay [7] was greater than 100 µM throughout. In addition, the TGI in assay [8], in assay [9], in assay [10], in assay [11], in assay [12] and in assay [13] was greater than 100 µM throughout. Further, the TGI in [14] and in assay [15] was greater than 100 µM throughout.
As for `CCOC(=O)C(Cc1c[nH]c2cc([N+](=O)[O-])ccc12)NS(=O)(=O)c1ccc2ccccc2c1` (stereo not drawn), the TGI in assay [1] is 80 µM; in assay [2], 51.6 µM; in [3] it was 34.1 µM; in assay [4], 30.8 µM; in [5] it was 48 µM; in assay [6] it was 39.1 µM. The TGI is 48.5 µM in [7]; greater than 100 µM in assay [8]; 48.4 µM in assay [9]; 32.9 µM in assay [10]; 32.9 µM in [11]; 35.5 µM in assay [12]. Also, the values for the TGI in [13] and in assay [15] were 32.1 µM and 32.5 µM, respectively.
Take `O=C(O)c1ccc(C2=Cc3cc(Cl)ccc3OC2)cc1`: the TGI in assay [1], in [2], in [3], in assay [4], in [5] and in assay [6] was greater than 100 µM in each case. For the same compound, the TGI in assay [7], in assay [8], in [9], in assay [10], in assay [11] and in [12] was greater than 100 µM in each case. In addition, the TGI in [13], in assay [14] and in [15] was greater than 100 µM throughout.
In the case of `NC1=NS(=O)(=O)Nc2nc(-c3ccccc3)[nH]c21`, the TGI in assay [2], in assay [3], in assay [4], in [5], in [6] and in assay [7] was greater than 100 µM in each case. Also, the TGI in [8], in assay [9], in assay [10], in [11], in assay [12] and in assay [13] was greater than 100 µM each time. In addition, the TGI in [14] and in assay [15] was greater than 100 µM each time.
`O=C1N2Cc3c4ccc5c3CN3C(=O)N6Cc7c(ccc(c7CN1C6(c1ccccc1)C23c1ccccc1)OCCOCCNCCOCCO4)OCCOCCNCCOCCO5` (stereo not drawn): the TGI was greater than 100 µM in [1]; 57.4 µM in assay [2]; 57.8 µM in assay [3]; greater than 100 µM in assay [4]; greater than 100 µM in [5]; greater than 100 µM in assay [6]. In addition, the TGI in assay [8] was 92.2 µM; in [9], greater than 100 µM; in assay [10], greater than 100 µM; in assay [11], greater than 100 µM; in assay [12], greater than 100 µM; in [14] it was 59.6 µM. This compound also had a TGI in [15] greater than 100 µM.
